Here are results for eleven compounds from ChEMBL document CHEMBL3991601, “The target landscape of clinical kinase drugs” (Science, 2017).

Active and inactive are the calls of the source. Some results are limits rather than exact numbers.

Test [1] deals with Tyrosine-protein kinase Fer (Homo sapiens, UniProt P16591).
The target of test [2] is T1, Glycogen phosphorylase, liver form (Homo sapiens, UniProt P06737).
T1 sequence (P06737 whole entry): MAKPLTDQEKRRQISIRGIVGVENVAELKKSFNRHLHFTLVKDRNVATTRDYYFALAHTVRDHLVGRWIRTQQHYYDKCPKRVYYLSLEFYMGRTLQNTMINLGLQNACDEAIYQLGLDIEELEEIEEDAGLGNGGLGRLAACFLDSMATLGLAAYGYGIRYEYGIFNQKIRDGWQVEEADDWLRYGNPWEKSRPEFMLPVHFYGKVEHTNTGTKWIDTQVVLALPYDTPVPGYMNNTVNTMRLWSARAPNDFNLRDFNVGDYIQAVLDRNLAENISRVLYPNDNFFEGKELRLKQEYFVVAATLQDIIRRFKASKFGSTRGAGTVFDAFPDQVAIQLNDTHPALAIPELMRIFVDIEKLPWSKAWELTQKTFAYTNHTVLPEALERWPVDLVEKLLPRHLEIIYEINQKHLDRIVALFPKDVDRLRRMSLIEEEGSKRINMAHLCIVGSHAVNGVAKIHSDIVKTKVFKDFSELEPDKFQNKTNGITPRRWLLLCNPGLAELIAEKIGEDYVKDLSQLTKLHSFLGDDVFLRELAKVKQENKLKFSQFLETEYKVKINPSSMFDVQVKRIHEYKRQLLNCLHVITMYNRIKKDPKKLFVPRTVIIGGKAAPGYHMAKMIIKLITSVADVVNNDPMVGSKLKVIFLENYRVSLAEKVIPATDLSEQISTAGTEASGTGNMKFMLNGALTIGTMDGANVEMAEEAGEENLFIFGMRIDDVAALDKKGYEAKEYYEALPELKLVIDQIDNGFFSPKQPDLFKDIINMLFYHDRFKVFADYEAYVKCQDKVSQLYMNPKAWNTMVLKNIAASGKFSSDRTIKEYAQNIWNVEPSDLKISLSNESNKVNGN
The test is classed as subcellular, K-562, COLO 205, SK-N-BE(2) and MV-4-11, Cell lysate. Particulars: read-out: Kd apparent.

The target in test [3] is Bone morphogenetic protein receptor type-1B (Homo sapiens, UniProt O00238).
Chain of Bone morphogenetic protein receptor type-1B (O00238 whole entry): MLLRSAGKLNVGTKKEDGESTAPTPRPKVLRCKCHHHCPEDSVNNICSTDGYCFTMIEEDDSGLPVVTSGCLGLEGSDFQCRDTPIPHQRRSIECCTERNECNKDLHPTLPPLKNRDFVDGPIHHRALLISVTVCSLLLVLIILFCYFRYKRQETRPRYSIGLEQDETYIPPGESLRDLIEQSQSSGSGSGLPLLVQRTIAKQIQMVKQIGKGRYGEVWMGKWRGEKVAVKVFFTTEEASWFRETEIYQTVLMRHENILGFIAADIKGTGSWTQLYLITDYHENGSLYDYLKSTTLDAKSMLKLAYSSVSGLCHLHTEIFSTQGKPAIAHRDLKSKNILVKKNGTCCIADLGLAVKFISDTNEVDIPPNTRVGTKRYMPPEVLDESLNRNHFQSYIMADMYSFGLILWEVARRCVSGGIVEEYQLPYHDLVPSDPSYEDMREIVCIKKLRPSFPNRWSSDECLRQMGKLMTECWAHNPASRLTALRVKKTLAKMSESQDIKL
The target in test [4] is Protein kinase C alpha type (Homo sapiens, UniProt P17252).
Test [5] has as its target GTP-binding nuclear protein Ran (Homo sapiens, UniProt P62826).
In test [6] the target is DnaJ homolog subfamily A member 1 (Homo sapiens, UniProt P31689).
Chain of DnaJ homolog subfamily A member 1 (P31689 whole entry): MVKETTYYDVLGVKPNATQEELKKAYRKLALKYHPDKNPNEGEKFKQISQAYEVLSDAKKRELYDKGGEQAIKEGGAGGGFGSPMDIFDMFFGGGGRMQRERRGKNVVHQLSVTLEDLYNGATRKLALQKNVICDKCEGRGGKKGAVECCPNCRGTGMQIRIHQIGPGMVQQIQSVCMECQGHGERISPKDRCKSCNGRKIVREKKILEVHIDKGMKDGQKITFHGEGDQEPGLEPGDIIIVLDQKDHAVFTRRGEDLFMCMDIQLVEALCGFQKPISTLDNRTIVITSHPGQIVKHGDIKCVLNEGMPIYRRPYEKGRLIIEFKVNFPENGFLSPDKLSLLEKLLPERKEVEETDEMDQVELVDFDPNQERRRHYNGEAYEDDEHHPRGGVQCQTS
Test [7] has as its target Serine/threonine-protein kinase 16 (Homo sapiens, UniProt O75716).
Another test deals with Adenosine kinase (Homo sapiens, UniProt P55263).
Chain of Adenosine kinase (P55263 whole entry): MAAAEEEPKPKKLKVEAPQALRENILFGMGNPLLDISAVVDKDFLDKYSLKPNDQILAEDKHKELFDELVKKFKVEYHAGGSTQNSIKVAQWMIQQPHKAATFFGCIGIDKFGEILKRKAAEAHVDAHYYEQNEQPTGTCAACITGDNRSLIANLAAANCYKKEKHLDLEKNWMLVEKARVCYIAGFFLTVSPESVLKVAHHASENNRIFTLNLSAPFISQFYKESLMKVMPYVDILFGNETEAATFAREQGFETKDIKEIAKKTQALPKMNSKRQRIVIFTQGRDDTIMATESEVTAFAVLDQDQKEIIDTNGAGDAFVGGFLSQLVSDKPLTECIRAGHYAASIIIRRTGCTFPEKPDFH
In test [8] the target is Serine/threonine-protein kinase 26 (Homo sapiens, UniProt Q9P289).
Chain of Serine/threonine-protein kinase 26 (Q9P289 whole entry): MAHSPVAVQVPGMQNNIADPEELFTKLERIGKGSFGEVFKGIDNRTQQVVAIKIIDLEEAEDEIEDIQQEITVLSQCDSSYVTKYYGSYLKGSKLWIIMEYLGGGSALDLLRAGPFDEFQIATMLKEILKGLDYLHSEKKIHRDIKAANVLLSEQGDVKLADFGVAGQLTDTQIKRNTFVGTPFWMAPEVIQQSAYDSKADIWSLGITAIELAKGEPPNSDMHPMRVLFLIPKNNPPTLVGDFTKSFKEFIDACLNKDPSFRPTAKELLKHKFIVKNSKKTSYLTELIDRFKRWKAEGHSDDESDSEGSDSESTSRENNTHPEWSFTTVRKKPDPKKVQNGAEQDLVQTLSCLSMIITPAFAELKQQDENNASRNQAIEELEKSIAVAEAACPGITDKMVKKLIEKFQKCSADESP
The target in test [9] is T2, Dynamin-like GTPase OPA1, mitochondrial (Homo sapiens, UniProt O60313).
T2 sequence (O60313 whole entry): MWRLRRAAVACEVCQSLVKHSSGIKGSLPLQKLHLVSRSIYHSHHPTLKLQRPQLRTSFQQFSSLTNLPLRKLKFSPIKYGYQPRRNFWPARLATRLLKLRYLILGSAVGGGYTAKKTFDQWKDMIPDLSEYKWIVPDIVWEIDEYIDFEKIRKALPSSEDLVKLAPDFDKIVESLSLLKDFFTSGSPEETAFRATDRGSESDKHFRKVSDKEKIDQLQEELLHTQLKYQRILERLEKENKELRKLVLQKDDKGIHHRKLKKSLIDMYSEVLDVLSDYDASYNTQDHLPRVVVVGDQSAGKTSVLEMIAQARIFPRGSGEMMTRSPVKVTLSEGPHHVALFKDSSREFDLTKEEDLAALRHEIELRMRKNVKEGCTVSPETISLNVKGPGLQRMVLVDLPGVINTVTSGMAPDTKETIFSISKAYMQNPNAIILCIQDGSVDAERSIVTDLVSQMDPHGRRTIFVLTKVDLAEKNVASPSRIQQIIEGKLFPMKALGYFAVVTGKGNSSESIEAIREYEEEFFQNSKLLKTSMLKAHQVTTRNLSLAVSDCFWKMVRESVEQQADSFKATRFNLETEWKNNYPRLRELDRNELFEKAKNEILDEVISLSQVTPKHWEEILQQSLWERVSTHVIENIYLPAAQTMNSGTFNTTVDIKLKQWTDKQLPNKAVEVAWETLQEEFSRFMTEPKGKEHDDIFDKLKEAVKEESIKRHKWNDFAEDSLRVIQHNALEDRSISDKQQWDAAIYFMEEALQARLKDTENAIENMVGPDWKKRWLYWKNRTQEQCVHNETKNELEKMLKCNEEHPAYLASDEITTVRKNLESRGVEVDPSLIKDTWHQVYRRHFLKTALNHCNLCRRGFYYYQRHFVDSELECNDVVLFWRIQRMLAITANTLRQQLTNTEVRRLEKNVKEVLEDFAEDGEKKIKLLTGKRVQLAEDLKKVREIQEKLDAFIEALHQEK

In test [10] the target is T3, Interleukin-1 receptor-associated kinase 4 (Homo sapiens, UniProt Q9NWZ3).
T3 sequence (Q9NWZ3 whole entry): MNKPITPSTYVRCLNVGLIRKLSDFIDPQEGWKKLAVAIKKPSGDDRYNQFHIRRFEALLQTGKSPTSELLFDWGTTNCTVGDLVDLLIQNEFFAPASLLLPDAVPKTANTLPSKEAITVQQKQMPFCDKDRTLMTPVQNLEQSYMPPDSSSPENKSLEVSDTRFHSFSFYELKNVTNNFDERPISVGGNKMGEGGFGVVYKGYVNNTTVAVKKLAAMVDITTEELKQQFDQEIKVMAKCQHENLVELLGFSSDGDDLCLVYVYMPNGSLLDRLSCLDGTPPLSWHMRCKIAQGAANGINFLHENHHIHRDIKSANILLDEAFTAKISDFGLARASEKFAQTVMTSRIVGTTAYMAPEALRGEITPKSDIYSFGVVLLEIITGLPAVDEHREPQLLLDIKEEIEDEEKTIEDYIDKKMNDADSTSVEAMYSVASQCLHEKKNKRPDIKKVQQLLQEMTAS

Test [11] concerns the target U5 small nuclear ribonucleoprotein 200 kDa helicase (Homo sapiens, UniProt O75643).
For test [12], the target named is Platelet-derived growth factor receptor beta (Homo sapiens, UniProt P09619).
Further: in the data inactive means no Kd found up to 30 µM.

Chain of Serine/threonine-protein kinase 16 (O75716 whole entry): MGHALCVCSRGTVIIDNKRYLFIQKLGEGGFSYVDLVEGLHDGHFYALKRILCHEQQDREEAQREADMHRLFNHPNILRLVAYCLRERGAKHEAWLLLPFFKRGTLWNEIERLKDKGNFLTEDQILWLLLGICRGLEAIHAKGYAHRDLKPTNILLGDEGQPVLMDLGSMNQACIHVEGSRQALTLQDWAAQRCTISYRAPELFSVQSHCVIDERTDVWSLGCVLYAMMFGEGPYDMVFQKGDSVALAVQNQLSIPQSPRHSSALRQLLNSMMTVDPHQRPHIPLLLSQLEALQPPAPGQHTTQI
Chain of U5 small nuclear ribonucleoprotein 200 kDa helicase (O75643 whole entry): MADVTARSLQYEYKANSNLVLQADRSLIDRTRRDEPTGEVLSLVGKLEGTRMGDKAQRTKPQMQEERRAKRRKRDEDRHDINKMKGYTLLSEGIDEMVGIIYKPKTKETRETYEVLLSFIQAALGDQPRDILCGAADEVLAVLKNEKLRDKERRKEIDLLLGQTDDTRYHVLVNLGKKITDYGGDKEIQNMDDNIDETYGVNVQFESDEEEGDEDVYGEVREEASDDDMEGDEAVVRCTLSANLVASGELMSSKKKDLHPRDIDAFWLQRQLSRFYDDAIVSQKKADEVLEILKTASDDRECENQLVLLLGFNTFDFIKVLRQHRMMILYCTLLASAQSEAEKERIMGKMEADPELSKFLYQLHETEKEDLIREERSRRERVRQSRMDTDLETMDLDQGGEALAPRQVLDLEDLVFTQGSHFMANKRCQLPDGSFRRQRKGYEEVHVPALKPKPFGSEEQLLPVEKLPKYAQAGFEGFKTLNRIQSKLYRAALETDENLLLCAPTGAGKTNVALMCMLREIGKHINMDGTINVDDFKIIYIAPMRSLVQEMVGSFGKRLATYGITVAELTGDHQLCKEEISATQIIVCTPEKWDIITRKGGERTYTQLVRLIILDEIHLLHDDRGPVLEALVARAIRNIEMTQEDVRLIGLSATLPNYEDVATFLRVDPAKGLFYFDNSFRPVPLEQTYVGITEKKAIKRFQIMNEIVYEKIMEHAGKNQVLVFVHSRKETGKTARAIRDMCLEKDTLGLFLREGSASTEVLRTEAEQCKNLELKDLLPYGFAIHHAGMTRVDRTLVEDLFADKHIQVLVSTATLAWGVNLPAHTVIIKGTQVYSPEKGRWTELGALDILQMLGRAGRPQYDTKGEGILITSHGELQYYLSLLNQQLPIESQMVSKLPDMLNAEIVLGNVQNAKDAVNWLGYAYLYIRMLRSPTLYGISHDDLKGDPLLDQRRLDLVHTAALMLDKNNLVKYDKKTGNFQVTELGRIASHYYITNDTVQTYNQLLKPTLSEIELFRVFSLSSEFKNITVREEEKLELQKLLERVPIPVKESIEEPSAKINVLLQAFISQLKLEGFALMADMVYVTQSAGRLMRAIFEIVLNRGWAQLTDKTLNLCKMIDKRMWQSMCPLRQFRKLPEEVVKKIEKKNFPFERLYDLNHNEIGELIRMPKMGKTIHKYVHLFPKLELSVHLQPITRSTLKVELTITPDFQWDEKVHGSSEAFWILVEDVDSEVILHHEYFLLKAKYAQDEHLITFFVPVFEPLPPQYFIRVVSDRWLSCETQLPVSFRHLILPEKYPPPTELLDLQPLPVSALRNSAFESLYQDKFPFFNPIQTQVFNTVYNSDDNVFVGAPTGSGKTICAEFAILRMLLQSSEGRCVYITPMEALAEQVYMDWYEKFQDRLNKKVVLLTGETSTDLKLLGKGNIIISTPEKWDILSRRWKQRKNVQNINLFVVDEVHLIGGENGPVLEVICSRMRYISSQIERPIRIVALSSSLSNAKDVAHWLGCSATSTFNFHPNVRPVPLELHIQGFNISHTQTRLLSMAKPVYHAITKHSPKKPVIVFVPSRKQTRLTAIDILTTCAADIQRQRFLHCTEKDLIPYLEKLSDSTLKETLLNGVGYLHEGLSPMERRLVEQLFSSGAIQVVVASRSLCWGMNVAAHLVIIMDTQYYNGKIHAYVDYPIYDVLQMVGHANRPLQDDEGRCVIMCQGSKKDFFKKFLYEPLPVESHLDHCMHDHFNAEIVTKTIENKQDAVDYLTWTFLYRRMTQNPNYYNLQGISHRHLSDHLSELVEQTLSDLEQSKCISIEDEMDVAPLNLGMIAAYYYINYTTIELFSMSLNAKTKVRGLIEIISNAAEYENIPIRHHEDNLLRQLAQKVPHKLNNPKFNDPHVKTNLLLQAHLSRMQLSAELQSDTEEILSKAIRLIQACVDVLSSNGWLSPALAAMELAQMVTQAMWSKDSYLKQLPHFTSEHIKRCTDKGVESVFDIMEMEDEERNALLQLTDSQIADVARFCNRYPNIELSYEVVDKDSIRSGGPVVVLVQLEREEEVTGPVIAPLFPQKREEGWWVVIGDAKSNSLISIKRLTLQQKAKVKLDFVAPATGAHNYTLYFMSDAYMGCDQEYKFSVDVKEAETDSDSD

Take `OCCn1cc(-c2cnc3nnn(Cc4ccc5ncccc5c4)c3n2)cn1` [PF-04217903]: the Kd in test [1], in test [2], in test [3], in test [4], in test [5] and in test [6] was > 30 µM (inactive) each time. Moreover, the Kd (in test [7]; at Adenosine kinase; in test [8]; in test [9]; in test [10]; in [11]) was > 30 µM (inactive) each time.
`CCn1c(-c2nonc2N)nc2c(C#CC(C)(C)O)ncc(OC[C@H]3CCCNC3)c21` [GSK-690693]: the Kd in test [2] was > 30 µM (inactive); in [4], 0.566 µM (active); in test [5] it was > 30 µM (inactive); in test [6], > 30 µM (inactive); at Adenosine kinase, > 30 µM (inactive); in test [9] it was > 30 µM (inactive). Moreover, the Kd in test [11] was > 30 µM (inactive).
`Cc1cc(Nc2cc(N3CCN(C)CC3)nc(/C=C/c3ccccc3)n2)n[nH]1` [ENMD-2076]: the Kd in [1], in test [2], in [3], in test [4], in test [5] and in test [6] was > 30 µM (inactive) throughout. For the same compound, the Kd was 0.702 µM (active) in test [7], > 30 µM (inactive) at Adenosine kinase, > 30 µM (inactive) in test [9] and > 30 µM (inactive) in test [11].
As for `Nc1nc(N)c2nc(-c3cccc(O)c3)c(-c3cccc(O)c3)nc2n1` [TG100-115], the Kd (in [2]; in [4]; in test [5]; in test [6]; on Adenosine kinase; in [9]) was > 30 µM (inactive) in each case. Besides, the Kd in test [11] was > 30 µM (inactive).
For the compound `CN1CCN(c2ccc3nc(-c4c(N)c5c(F)cccc5[nH]c4=O)[nH]c3c2)CC1` [DOVITINIB], the Kd (in [2]; in test [4]; in test [5]; in [6]; at Adenosine kinase; in test [9]) was > 30 µM (inactive) in each case. In [11], the Kd is > 30 µM (inactive).
For the compound `O=C(Nc1cccc(Cl)c1)Nc1ncc(CCNc2ncnc3ccsc23)s1` [SNS-314], the Kd in test [2], in test [3], in test [4], in test [5], in [6] and in [7] was > 30 µM (inactive) throughout. In addition, the Kd (on Adenosine kinase; in [8]; in test [9]; in test [11]) was > 30 µM (inactive) throughout.
For the compound `CCc1cnn2c(NCc3ccc[n+]([O-])c3)cc(N3CCCC[C@H]3CCO)nc12` [DINACICLIB], the Kd in test [1], in test [2], in test [3], in test [4], in test [5] and in test [6] was > 30 µM (inactive) each time. In addition, the Kd in test [7] was > 30 µM (inactive); at Adenosine kinase it was > 30 µM (inactive); in test [8] it was 0.098 µM (active); in test [9] it was > 30 µM (inactive); in [10] it was > 30 µM (inactive); in test [11], > 30 µM (inactive).
As for `CN1CCC(COc2cnc(-c3cccc(Cn4nc(-c5cccc(C#N)c5)ccc4=O)c3)nc2)CC1` [TEPOTINIB], the Kd in test [12], in test [1], in test [2], in test [3], in [4] and in test [5] was > 30 µM (inactive) in each case. Besides, the Kd (in [6]; in test [7]; on Adenosine kinase; in test [9]; in test [10]; in test [11]) was > 30 µM (inactive) throughout.
Consider `COc1cc2nccc(Oc3ccc(NC(=O)NC4CC4)c(Cl)c3)c2cc1C(N)=O` [LENVATINIB], for which the Kd in test [12] is 0.316 µM (active); in test [2], > 30 µM (inactive); in [3], > 30 µM (inactive); in [4], > 30 µM (inactive); in test [5], > 30 µM (inactive); in test [6], > 30 µM (inactive). Also, the Kd (in test [7]; on Adenosine kinase; in test [9]; in [10]; in test [11]) was > 30 µM (inactive) throughout.
In the case of `Cc1nc(N)sc1-c1ccnc(Nc2ccc(N3CCOCC3)cc2)n1` [CYC-116], the Kd in test [2] is > 30 µM (inactive); in test [3], > 30 µM (inactive); in test [4], > 30 µM (inactive); in test [5], > 30 µM (inactive); in test [6], > 30 µM (inactive); in test [7], 0.21 µM (active). Besides, the Kd at Adenosine kinase was > 30 µM (inactive); in [8], 0.013 µM; in test [9] it was > 30 µM (inactive); in test [11], > 30 µM (inactive).
Turning to `Cc1cn(-c2cc(NC(=O)c3ccc(C)c(Nc4nccc(-c5cccnc5)n4)c3)cc(C(F)(F)F)c2)cn1` [NILOTINIB], the Kd (in [2]; in test [4]; in test [5]; in test [6]; at Adenosine kinase; in test [9]) was > 30 µM (inactive) in each case. In [11], the Kd was > 30 µM (inactive).
